The values below come from PubChem BioAssay AID464 (The Scripps Research Institute Molecular Screening Center, 2006).

As a reminder, the CC50 is the concentration at which the toxic effect on the cells reaches its halfway point.

Activity calls are given as the source filed them.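 The calls were made as follows: active = Compounds that kill half the cells at a concentration of 5 micromolar or below, from the fitted or estimated CC50; inactive = CC50 above 5 micromolar.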

For this assay, the system named is Jurkat E6.1 viability, ATP luminescence, 48 h. As to the kind of experiment: viability loss in Jurkat T cells – cell-based, ATP luminescence, 48 h, 60K MLSMR, cytotoxicity control, dose response (AID 464).
For `COc1ccc(NC(=O)c2cnc(C)cn2)c2ncccc12`, the CC50 is 5.63 µM (inactive).
With `Cc1cc(NC(=O)COC(=O)c2ccc(S(=O)(=O)N3CCCc4ccccc43)cc2)no1` the figure was 2.16 µM; with `CCCCCCn1ccc(=N)cc1`, 5.08 µM (inactive).
With `CCOc1cc(C(=O)Nc2cnccn2)cc(OCC)c1OCC` the figure was 6.16 µM (inactive); with `COc1cccc(C(=O)Nc2ncc3c(n2)CC(c2ccc(OC)cc2OC)CC3=O)c1` (stereo unspecified), 8.19 µM (inactive); with `COc1ccccc1C(=O)N1CCN(c2cccc(C(F)(F)F)c2)CC1`, 2.09 µM.
For `COc1ccccc1C1CC(=O)Nc2cc3c(cc21)OCCO3` (stereo unspecified), the CC50 was 0.912 µM.
With `OCCN1CCN(C(c2cccs2)c2ccc3cccnc3c2O)CC1` (stereo unspecified), the CC50 was 13.5 µM (inactive).
With `Oc1ccc(Cl)cc1CNc1ccc(Br)cn1` the figure was > 40 µM (inactive).
With `CCN(C1CCCCC1)S(=O)(=O)c1ccc(S(=O)(=O)NCc2ccncc2)cc1` the figure was 5.32 µM (inactive).
The figure for `Cn1cc(/C=N/n2cnc3scc(-c4ccccc4)c3c2=O)c2ccccc21` is 1.1 µM.
Consider `COc1ccc(-c2cc(N)n(S(=O)(=O)c3c(F)c(F)c(F)c(F)c3F)n2)cc1OC`, for which the CC50 is 2.01 µM.
With `c1ccc(OCCCCn2cnc3ccccc32)cc1` the figure was 20.3 µM (inactive).
The figure for `COc1ccccc1-n1cnc2cc(NCc3ccco3)ccc21` is 0.313 µM; for `COc1ccc(-c2nnc(SCC(=O)Nc3ncc(C)s3)n2-c2ccccc2)cc1OC` it is 9.26 µM (inactive).
With `COc1ccc(OC)c(C(C)NC(=O)c2ccco2)c1` (stereo unspecified) the figure was 6.24 µM (inactive); with `CCOC(=O)c1c(C)c(C(=O)Nc2cc(OC)ccc2OC)c(C)n1CC`, 11.4 µM (inactive); with `Cn1c(C(=O)NCc2cccs2)cc2oc3ccccc3c21`, > 40 µM (inactive).
On to `O=C(Nc1ccc2oc(Cc3ccc(Cl)cc3)nc2c1)c1cccnc1`, for which the CC50 is 27.8 µM (inactive).
For the compound `COc1ccccc1N1CCN(Cc2cc(Br)c(O)c3ncccc23)CC1`, the CC50 is 7.73 µM (inactive).
With `Cc1nc2ccccn2c1-c1csc(NCc2ccco2)n1` the figure was > 40 µM (inactive).
For `Cc1onc(-c2ccccc2)c1C(=O)Nc1sc2c(c1C#N)CCC2`, the CC50 is 15 µM (inactive).
On to `COC(=O)c1ccc(NC(=O)c2ccc(N(C)S(C)(=O)=O)cc2)cc1`, for which the CC50 was 11.9 µM (inactive).
The figure for `CCOC(=O)C(C)Oc1cccc2c(=O)n(CC(=O)NCc3ccco3)ccc12` (stereo unspecified) is 1.1 µM; for `COc1cccc(Cn2c(-c3nonc3N)nc3ccccc32)c1` it is 1.06 µM.
In the case of `N#CC1=C(N)Oc2cc(N)ccc2C1C1CC=CCC1` (stereo unspecified), the CC50 is > 4.4 µM (inactive).
`Cc1ccc(OCCN2CCN(C(=O)CCC(=O)Nc3nnc(C(C)C)s3)CC2)cc1`: the CC50 was 5.08 µM (inactive).
Regarding `CCOc1ccc(Nc2cc(C)nc(-n3nc(C)cc3C)n2)cc1`, the CC50 is 0.191 µM.
The figure for `Cc1ccc2[nH]c(=O)c(CN(Cc3ccco3)C(=O)c3ccncc3)cc2c1` is 6.52 µM (inactive); for `Cc1cc(N2CCN(C/C=C/c3ccccc3)CC2)n2ncnc2n1` it is > 40 µM (inactive).
With `COc1ccc(CNC(=O)c2cc3c(C)nc4ccccc4c3o2)c(OC)c1` the figure was > 40 µM (inactive); with `COc1ccc(NS(=O)(=O)c2cc(C)ccc2C)cc1`, 5.18 µM (inactive).
The figure for `Cc1cc(C(=O)OCC(=O)NCc2ccco2)c(C)n1-c1ccccc1` is 2.68 µM; for `CSc1nc2nc3c(c(=O)n2[nH]1)CN(Cc1ccccc1)CC3` it is > 40 µM (inactive).
With `COc1cc(CN2CCN(c3cccc(Cl)c3)CC2)cc(OC)c1OC`, the CC50 is 4.36 µM.
On to `CN1CCN(Cc2cc(COCc3ccccc3)c3cccnc3c2O)CC1`, for which the CC50 is 10.5 µM (inactive).
In the case of `CCc1ccc(CNc2ccc(O)cc2)cc1`, the CC50 is > 40 µM (inactive).
With `Cc1nc(CNS(=O)(=O)c2ccc(Oc3ccccc3)cc2)cs1` the figure was 10.6 µM (inactive); with `CCCn1c(NC(=O)c2cccc(S(=O)(=O)N3CCCC3)c2)nc2ccccc21`, > 40 µM (inactive).
Turning to `CCn1ncc(C2=NOC(C(=O)NCc3ccc(OC)cc3)C2)c1C` (stereo unspecified), the CC50 was 11.8 µM (inactive).
On to `CCOC(=O)C(C)Oc1cccc2c(=O)n(CC(=O)NCc3ccc4c(c3)OCO4)ccc12` (stereo unspecified), for which the CC50 is 3.9 µM.
As for `COc1cc2c(cc1OC)C(C)N(C(=O)c1cc3ccccc3o1)CC2` (stereo unspecified), the CC50 was 24.4 µM (inactive).
As for `OC1(c2cccc(C(F)(F)F)c2)CCN(c2ncnc3c2[nH]c2ccc(F)cc23)CC1`, the CC50 is 14.4 µM (inactive).
With `CC(C)OCCCNc1ncnc2c1[nH]c1ccccc12` the figure was 4.91 µM; with `CCOC(=O)c1[nH]c(C)c(C(=O)Nc2cc(OC)ccc2OC)c1C`, 0.458 µM.
The figure for `Nc1c(C(=O)NCc2ccccc2)nnn1Cc1cccc(Cl)c1` is 4.49 µM; for `N=c1c2c(n(Cc3ccc(Cl)cc3)c3c1CCC3)CCC2` it is 2.06 µM; for `CCOc1ccc2nc(NC(=O)c3ccoc3C)sc2c1` it is 12.6 µM (inactive).
Consider `CCOC(=O)COc1cccc2c(=O)n(CC(=O)NCc3ccc4c(c3)OCO4)ccc12`, for which the CC50 was 5.51 µM (inactive).
With `CCCS(=O)(=O)c1nnnn1-c1cccc(OC)c1` the figure was 1.73 µM.
Take `On1onc2c3cc(-c4ccccc4)nc3ccc21`: the CC50 is 3.9 µM.
With `COc1ccc(C(NC(C)=O)c2ccc3cccnc3c2O)c(OC)c1` (stereo unspecified), the cytotoxic concentration (CC50) was 3.15 µM.
`CCCN1CCN(c2ncnc3c2nnn3Cc2ccccc2)CC1`: the CC50 is 9.22 µM (inactive).
Take `CCOc1ccc2ccccc2c1C(=O)N1CCN(c2ccccc2)CC1`: the CC50 is 3.75 µM.
For `CSc1nnc2c3ccccc3n(CCc3ccccc3)c2n1`, the CC50 is 16.9 µM (inactive).
With `CCCCCCn1c(NCC)nc2c1c(=O)n(C)c(=O)n2C` the figure was 2.83 µM; with `CCCOC(=O)c1[nH]c2c(c1C)C(=O)CC(c1cc(OC)c(OC)c(OC)c1)C2` (stereo unspecified), 23.8 µM (inactive); with `O=C(Nc1ccc(N2CCCC2)cc1)c1cccc(F)c1`, 8.17 µM (inactive).
`Cc1noc(C)c1CSc1nc2[nH]ncc2c(=O)n1-c1ccccc1`: the CC50 was 0.188 µM.
For `Cc1ccc2cc(CN(Cc3ccco3)C(=O)c3cccs3)c(=O)[nH]c2c1`, the cytotoxic concentration (CC50) was 2.6 µM.
For the compound `CCOC(=O)/C=C/S(=O)(=O)c1ccc(NC(C)=O)cc1`, the cytotoxic concentration (CC50) was 3.21 µM.
The figure for `Cc1c(C(=O)OCc2ccccc2)[nH]c2c1C(=O)CC(c1ccco1)C2` (stereo unspecified) is 0.499 µM.
For `Cn1c(=O)c2c(nc(NCCO)n2CCc2ccccc2)n(C)c1=O`, the CC50 was 9.41 µM (inactive).
In the case of `O=C(Oc1ccc2c(c1)OCO2)c1cc2c(s1)CCC2`, the CC50 is > 40 µM (inactive).
The figure for `O=C(CSc1nc(-c2ccco2)cc(C(F)(F)F)n1)Nc1ccc2c(c1)OCO2` is 5.19 µM (inactive).
As to `Cn1c(SC2=CS(=O)(=O)c3ccccc32)nc2ccccc21`, the CC50 is 2.66 µM.
`CCn1c2ccccc2c2cc(Nc3cc(C)nc4ncnn34)ccc21`: the CC50 is 0.109 µM.
With `CCOc1ccc(N(CC(=O)Nc2ccccc2C)S(=O)(=O)c2c(C)noc2C)cc1` the figure was 1.35 µM; with `Cc1ccc(-c2nc(-c3ccccn3)no2)cc1`, 10.3 µM (inactive); with `CCOC(=O)c1[nH]c(C)c(C(=O)Nc2cc(Cl)ccc2C)c1C`, 0.248 µM.
With `Cc1nnc(NC(=O)CSc2nccn2-c2cccc(C)c2C)s1` the figure was 2.04 µM; with `Nc1nnnn1/N=C/C(Br)=C/c1ccccc1`, > 13 µM (inactive); with `O=S1(=O)C=C(Sc2nc3ccccc3s2)c2ccccc21`, 0.647 µM.
The figure for `Cc1ccsc1C(=O)Nc1nnc(-c2ccco2)o1` is 24.2 µM (inactive); for `Cc1cc(/C=N/n2cnnc2)c(C)n1-c1ccc(OCc2ccc(F)cc2)cc1` it is > 13 µM (inactive).
With `CCOc1cc(C#N)c(NC(=O)c2cccnc2)cc1OCC`, the cytotoxic concentration (CC50) is 1.51 µM.
The figure for `C/C=C/COC(=O)c1[nH]c2c(c1C)C(=O)CC(c1ccco1)C2` (stereo unspecified) is 0.196 µM.
For the compound `c1ccc(-c2noc(-c3ccc4c(c3)OCO4)n2)nc1`, the CC50 was 2.75 µM.
With `O=C(c1ccc2c(c1)ncn2C1CCCCC1)N1CCC2(CC1)OCCO2` the figure was 5.19 µM (inactive).
The figure for `COc1ccccc1-c1nnc(Nc2nc3c(OC)cccc3s2)o1` is 0.664 µM.
The figure for `Cc1cc(NC(=O)CSc2nc3ccccc3c(=O)n2C2CCCC2)no1` is 0.469 µM; for `CCCCOc1ncnc2c1[nH]c1ccc(F)cc12` it is > 40 µM (inactive).
With `CC1Cc2cc(-c3csc(NC(=O)Cc4cccs4)n3)ccc2N1S(C)(=O)=O` (stereo unspecified), the CC50 is 5.23 µM (inactive).
Consider `Cc1sc(NC(=O)c2ccco2)nc1-c1ccc2c(c1)CC(C)N2C(=O)C1CC1` (stereo unspecified), for which the CC50 was 16.3 µM (inactive).
As for `Cc1cccc(N2CCN(c3cccc(C)c3)C2c2cccnc2)c1`, the CC50 is 15.8 µM (inactive).
In the case of `COC(=O)Nc1ccc(S(=O)(=O)N2c3ccccc3CCC2C)cc1` (stereo unspecified), the CC50 is 2.19 µM.
Regarding `CCCn1c(NC(=O)C2CCN(S(=O)(=O)c3cccs3)CC2)nc2ccccc21`, the CC50 is > 40 µM (inactive).
Consider `CCOC(=O)c1[nH]c(C)c(C(=O)c2cc(F)ccc2F)c1C`, for which the CC50 was 0.204 µM.
The figure for `CCCCOc1ncnc2c1[nH]c1ccccc12` is 5.71 µM (inactive); for `CN(CCCC(=O)Nc1ccncc1)S(=O)(=O)c1ccc(Cl)cc1` it is 5.53 µM (inactive).
With `COc1cc(NS(=O)(=O)c2ccc(NC(C)=O)cc2)cc(OC)c1` the figure was 14.8 µM (inactive); with `COCCOC(=O)c1[nH]c2c(c1C)C(=O)CC(c1ccco1)C2` (stereo unspecified), 0.945 µM; with `N=c1c2c(n(Cc3ccccc3)c3c1CCC3)CCC2`, 3.66 µM.
With `CCOc1ccc(S(=O)(=O)n2cnc3cc(C)c(C)cc32)cc1` the figure was 4.83 µM; with `COc1cc(C2Nc3ccc4ncccc4c3C3=C2C(=O)CCC3)ccc1O` (stereo unspecified), 2.5 µM; with `O=C(Nc1ccc(N2CCOCC2)cc1)Nc1ccc2nc(-c3ccco3)c(-c3ccco3)nc2c1`, 10.4 µM (inactive).
